# Experimental data reported in publication PMC9967085, “Properly Substituted Benzimidazoles as a New Promising Class of Nicotinate Phosphoribosyltransferase (NAPRT) Modulators” (Pharmaceuticals, 2023).
# Where “and” joins values, the source holds several entries; their conditions need not be identical. Equal values may be shown once. Read-outs that look alike come from different tables or passages of the source.
# Columns and labels:
# [1] = Plasma protein binding by equilibrium dialysis, mouse; type: in vitro ADME; settings: performed at 0.5 μM, read-out: Protein Binding, Mouse plasma (FU)
# Procedure: (§1) The in silico ADME characterization has recently been reported for NAPRT inhibitors 1, 15 and 16, belonging to different chemotypes, and the results indicated promising pharmacokinetic features for the studied compounds [17]. With the aim to preliminarily shed light on the pharmacokinetics of this series of compounds, 18 was evaluated for its in vitro ADME profile. Kinetic solubility at pH 7.4, plasma protein binding from human and mouse species determined by using equilibrium dialysis, intrinsic hepatic clearance determined in human and mouse liver microsomes, and permeability studies in MDCKII (Madin–Darby canine kidney cells, a cell strain derived from the distal tubule or collecting duct of the nephron) and MDCKII-MDR1 (MDCK II cells overexpressing the multidrug resistance protein 1, MDR1) cell lines were performed according to previously reported procedures. Both cell lines were originally obtained from American Type Culture Collection (ATCC) and have been cultured and amplified with respect to permeability assessment at the test site.
# [2] = Plasma protein binding by equilibrium dialysis, human; type: in vitro ADME; settings: performed at 0.5 μM, read-out: Protein Binding, Human plasma (FU)
# Procedure: as §1
# [3] = Kinetic solubility at pH 7.4; type: physicochemical; settings: pH 7.4, aqueous buffer, kinetic from dmso stock
# Procedure: as §1
# [4] = Hepatic intrinsic clearance in human liver microsomes; type: in vitro ADME
# Procedure: as §1
# Human recombinant NAPRT [5] = molecular target: T1, Human recombinant NAPRT (Homo sapiens, UniProt Q6XQN6); assay: HPLC-based NAPRT activity screening assay; type: biochemical
# T1 construct: made in house
# T1 sequence (Q6XQN6 1-538): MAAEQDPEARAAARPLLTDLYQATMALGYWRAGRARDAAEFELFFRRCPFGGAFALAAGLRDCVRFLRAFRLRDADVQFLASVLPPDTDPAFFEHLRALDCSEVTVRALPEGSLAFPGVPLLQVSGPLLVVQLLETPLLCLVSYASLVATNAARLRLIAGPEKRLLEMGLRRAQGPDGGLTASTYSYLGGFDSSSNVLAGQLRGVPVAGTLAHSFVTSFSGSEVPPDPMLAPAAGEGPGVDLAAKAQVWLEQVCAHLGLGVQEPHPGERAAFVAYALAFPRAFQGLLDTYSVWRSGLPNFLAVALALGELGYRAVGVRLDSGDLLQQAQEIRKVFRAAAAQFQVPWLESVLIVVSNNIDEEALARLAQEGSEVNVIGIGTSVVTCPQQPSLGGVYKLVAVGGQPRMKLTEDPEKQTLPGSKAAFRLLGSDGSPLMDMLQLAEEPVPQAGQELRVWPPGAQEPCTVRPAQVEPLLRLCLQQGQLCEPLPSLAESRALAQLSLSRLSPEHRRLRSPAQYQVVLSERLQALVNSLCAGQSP
# [6] = Permeability in MDCKII cells; type: in vitro ADME, canine; settings: dog, MDCK
# Procedure: as §1
# Human recombinant NAPRT [7] = molecular target: T1, Human recombinant NAPRT; assay: Kinetic analyses of NAPRT inhibition (HPLC assay, Lineweaver–Burk plot); type: biochemical
# [8] = Hepatic intrinsic clearance in mouse liver microsomes; type: in vitro ADME
# Procedure: as §1
# MDCKII-MDR1 = assay: Permeability in MDCKII-MDR1 cells; type: in vitro ADME, canine; settings: from efflux ratio in MDCKII-MDR1
# Procedure: as §1
# MDR1 = assay: Permeability in MDCKII-MDR1 cells; type: in vitro ADME, canine; settings: dog, MDCK-MDR1
# Procedure: as §1
smiles,measurement,setting,value
"CC(=O)Nc1cccc(CNc2ccc3c(c2)nc(C)n3C)c1 [Compound 18, N-(3-(((1,2-dimethyl-1H-benzo[d]imidazol-5-yl)amino)methyl)phenyl)acetamide]",fraction unbound at 0.5 μM,[1],> 0.5
same,fraction unbound at 0.5 μM,[2],0.146
same,solubility kinetic,[3],312 µM and 130 µg/mL
same,Human Cli,[4]; human liver microsomes,<9.92 µL/min/mg protein
same,WSM in vivo prediction,"[4]; human, well-stirred model",6.83 mL/min/kg
same,Effect on NAPRT catalytic activity (in words),Human recombinant NAPRT [5],inhibit NAPRT activity
same,-Fold Stimulation (not active class),"Human recombinant NAPRT [5]; 1 mM compound, 0.2 mM NA, 0.4 mM PRPP","- (Not active, it is referred to compounds showing less than 10% inhibition or less than 1.10-fold stimulation)"
same,inhibition at 1000 µM,"Human recombinant NAPRT [5]; 1 mM compound, 0.2 mM NA, 0.4 mM PRPP, read-out: % Inhibition",46.1 ± 8.1%
same,Papp A→B,[6]; apical to basolateral,3.83 ×10⁻⁶ cm/s
same,Papp B→A,[6]; basolateral to apical,6.59 ×10⁻⁶ cm/s
same,efflux ratio,[6]; read-out: Efflux Ratio MDCKII (B-A/A-B),1.7
same,Inhibition mechanism towards NA,Human recombinant NAPRT [7],noncompetitive
same,Inhibition mechanism towards PRPP,Human recombinant NAPRT [7],mixed
same,Ki,"Human recombinant NAPRT [7]; NA 25 µM to 100 µM at 0.4 mM PRPP, noncompetitive, read-out: Ki towards NA",338 µM
same,Ki,"Human recombinant NAPRT [7]; PRPP 25 µM to 100 µM at 0.4 mM NA, mixed, read-out: Ki towards PRPP",134 µM
same,Mouse Cli,[8]; mouse liver microsomes,120 µL/min/mg protein
same,WSM in vivo prediction,"[8]; mouse, well-stirred model",26.9 mL/min/kg
same,P-gp substrate status,MDCKII-MDR1,P-gp substrate
same,Papp A→B,MDR1; apical to basolateral,0.339 ×10⁻⁶ cm/s
same,Papp B→A,MDR1; basolateral to apical,17.4 ×10⁻⁶ cm/s
same,efflux ratio,MDR1; read-out: Efflux Ratio MDCKII-MDR1 (B-A/A-B),51.3
